Experimental data from US20240197760A1, “ACTIVATORS OF INTEGRATED STRESS RESPONSE PATHWAY FOR PROTECTION AGAINST FERROPTOSIS” (Burke Neurological Institute, priority 2021, published 2024).

Tests used:
[1] = tested on: mouse primary neurons; test: Live-dead cell viability assay (calcein-AM / ethidium homodimer); format: cell-based; settings: 1 mM to 15 mM, 24 h, cultured mouse primary neurons
[2] = tested on: 5×FAD mice; test: Intracerebroventricular Alzet pump infusion in 5×FAD and wild type mice: Bdnf, LTP, Y-maze, Morris water maze; format: in vivo, mouse
Description: All animal procedures were approved by the Weill Cornell Medicine Institutional Animal Care and Use Committee (Animal protocol: 2014-0029) and conducted in accordance with the NIH Guide for the Care and Use of Laboratory Animals and ARRIVE guidelines. We used C57/BL6 mice for the induction of ischemic stroke and hemorrhagic stroke. 8-10 weeks old female pregnant CD1 mice were used for primary neuronal culture. Ppp1R15b^flox/flox mice were obtained from Ann-Hwee Lee's group currently working at Regeneron and were bred at Burke Neurological Institute. The genotypes of Ppp1R15b^flox/flox mice were assessed with PCR using DNA isolated from clipped tails of mice. Twelve weeks old male Ppp1R15b^flox/flox mice were used for inactivation of R15b regulatory subunit of protein phosphatase 1 in the hippocampus through AAV8 GFP or Cre intracranial injection. In the current study, 5×FAD mouse was used as a model of AD as this model represents pathological characteristics seen in both genetic as well as sporadic forms of AD. 5×FAD mice (B6/SJL genetic background) was purchased from Jackson's laboratory and was maintained by breeding male heterozygous transgenic mice with wild type female mice. The 5×FAD mice express human APP and PSEN1 transgenes with a total of five AD-linked mutations: the Swedish (K670N/M671L), Florida (I716V), and London (V717I) mutations in APP, and the M146L and L286V mutations in PSEN1. In the current study, 6-7 months old 5×FAD mice were used for the Alzet mini osmotic pump implantation followed by memory assessment, LTP assessment, and gene expression studies.
Brains were quickly removed from mice sacrificed by cervical dislocation and placed in cold artificial cerebrospinal fluid (ACSF) (bubbled with 95% O2/5% CO2) containing (in mM): 124 NaCl, 4 KCl, 1 Na2HPO4, 25 NaHCO3, 2 CaCl2, 2 MgCl2, and 10 glucose. The pH and osmolarity of the solution were 7.4 and 310 mOsm/L, respectively. The hippocampus was isolated and placed on a mechanical tissue chopper to produce transverse hippocampal slices of 400 μm thickness. Slices were maintained in a humidified interface chamber at 29° C. and continuously perfused (˜1 mL/min) with 95% O2/5% CO2-bubbled ACSF. Hippocampal slices were allowed to recover for at least 90 min prior to beginning the experiment. For recordings, glass electrodes were filled with ACSF and positioned in the CA1 stratum radiatum to record fEPSPs evoked by local stimulation (0.1 ms) of Schaffer collateral fibers using a bipolar concentric electrode placed laterally to the recording electrode (˜150 μm). For LTP recordings, the voltage intensity of the stimulation test pulse (square pulse, 100 us duration) for each slice was determined to be the voltage intensity that had generated 30-40% of the maximum slope obtained using input-output relationships. Facilitation was calculated as the ratio of the slopes of the second and first fEPSPs, and plotted as a function of the inter-pulse duration. For LTP, a test pulse was applied every minute. Following a steady baseline of 15 min, potentiation was induced with either 100 Hz for 1 s (weak stimulation) or 3 theta-burst stimulations (TBS; 15 s interval), each one involving a single train of 10 bursts at 5 Hz, where each burst is composed of 4 pulses at 100 Hz (strong stimulation). The fEPSP slopes following tetanic stimulation were normalized to the average of the slopes of the fEPSPs acquired during the baseline. Residual potentiation was calculated as the average of the last 15 min of 2 h of recordings.
The sterile Alzet mini osmotic pumps (Durect, pump model 1004) were filled with 100 μl of either saline or 2-deoxyglucose (10 μg/μl) and were incubated in saline for 24 h to allow the osmotic release of the drug. Thereafter, the pumps were attached properly with the plastic tubing provided in the brain infusion kit 2 3-5 mm (Durect, catalog number 0008663). We made an intracerebroventricular groove stereotaxically in the mouse brain. […]

[3] = tested on: AMPK; test: AMPK phosphorylation (threonine 172) immunoblot in primary cortical neurons; format: cell-based, mouse; settings: increasing concentrations 1-15 mM, 4 h
Protocol: Whole cell proteins were extracted in Triton X-100 lysis buffer (1% Triton X-100, 1% SDS, 50 mM Tris-Cl, pH 7.4, 500 mM NaCl and 1 mM EDTA). Samples were boiled in Laemmli buffer and electrophoresed under reducing conditions on NuPAGER Novex 4-12% Bis-Tris Gel polyacrylamide gels (Invitrogen). Proteins were transferred to a nitrocellulose membrane (Bio-Rad) by electroblotting. Nonspecific binding was inhibited by incubation in Odyssey blocking buffer (LI-COR Biosciences). Antibodies against Glut3 (Abcam, Catalog no. AB41525, dilution 1:1000), actin (Sigma Aldrich, Catalog no. A5316, dilution 1:10000), BDNF (Santacruz Biotechnology, Catalog no. sc-546, dilution 1:10,000), tubulin (Sigma Aldrich, Catalog no. T8203, dilution 1:10000), p-AMPK (Cell Signaling Technology, Cat no. 2535L, dilution 1:1000), AMPK (Cell Signaling Technology, Cat no. 2532L, dilution 1:1000), GFP (Cell Signaling Technology, Cat no. 2555S, dilution 1:2000), elF2S1 (phospho S51) (Abcam, Catalog no. AB32157, dilution 1:500), and eIF2α (Cell Signaling Technology, Cat no. 9722, dilution 1:500) were diluted in odyssey blocking buffer and the membranes were incubated overnight at 4° C. […] Finally, proteins were detected using an Odyssey infrared imaging system (LI-COR Biosciences).

[4] = tested on: human Bdnf promoters; test: Human Bdnf promoter luciferase reporters in HT22 cells; format: cell-based, mouse; settings: 10 mM, 6 h
[5] = ICV Alzet pump, four weeks, wild type mice
[6] = ICV Alzet pump, four weeks, versus wild type mice treated with saline

OC[C@H]1OC(O)C[C@@H](O)[C@@H]1O (stereo partly drawn) [2-DG, (4R,5S,6R)-6-(hydroxymethyl)oxane-2,4,5-triol]
toxicity / neuronal cell death in live-dead assay [1]: no toxicity
Bdnf gene expression in wild type mice [2, 5]: didn't lead to nootropic upregulation
LTP in wild type mice [2, 5]: didn't lead to nootropic upregulation
Morris water maze task in wild type mice [2, 5]: did not show any nootropic increase
Y-maze task in wild type mice [2, 5]: did not show any nootropic increase
LTP in hippocampal slices from 5×FAD mice ([2]; ICV Alzet pump, four weeks, 5×FAD (saline) vs 5×FAD (2-DG) p=0.0194): normalized
Bdnf gene expression in 5×FAD mice [2, 6]: normalized
spatial long-term memory in Morris water maze, 5×FAD mice [2, 6]: normalized these memories
spatial short-term memory, spontaneous alternation test in Y-maze, 5×FAD mice [2, 6]: normalized these memories
driving the adaptive plasticity program ([2]; intracerebroventricular infusion at 1 g/Kg/day): sufficient in driving the adaptive plasticity program
level of AMPK phosphorylation at threonine 172 [3]: biphasic
promoter activity of nine human Bdnf promoters [4]: all Bdnf promoters except Bdnf promoter VI were significantly upregulated
